{
  "source": "patent US20240165200A1",
  "about": "“CATH2 AND DERIVATIVES FOR INHIBITING STREPTOCOCCUS SUIS” (Universiteit Utrecht Holding B.V., priority 2021, published 2024)",
  "key": {"murine BMDMs": {"system": "murine BMDMs", "assay_type": "cell-based, mouse", "experimental": "FIG. 2: Peptide titration on BMDM and BMDCs for cytotoxicity and expression of cell markers. Mouse BMDM (A, C, E, G) and BMDCs (B, D, F, H) were cultured for 6 days with […]. Different concentrations were added at day 6 (A, B, E, F) or the cells were primed with different concentrations peptides at day 1-2 (C, D, G, H). At day 7, cell viability was tested using WST-1 reagent, with no-peptide-control set to 100% viability (A-D) and cells were analyzed by flowcytometry for cell marker expression (E-H). Results are depicted as mean +/−S.E.M. (n=3).\nBone marrow cells, isolated from the femur and tibia of both hindlegs, were stored in FCS/10% DMSO in liquid nitrogen. Cells were grown at a concentration of 5×10^5 cells mL^−1 in RPMI-1640 without phenol red (Thermo Fisher Scientific, MA, USA) supplemented with 10% fetal calf serum (FCS) (Corning, NY, USA) and 1% Penicillin/streptomycin (Thermo Fisher Scientific). […] Cells were stained with antibodies (table 1) for 20 minutes, washed and measured using the BD FACSCanto-II (BD bioscience) and analyzed with FlowJo software (Ashland, OR, USA).\nWST-1 reagent (roche) was used for cell viability of BMDCs and BMDM as well as for cell activity of activated splenocytes. […] After 30-60 minutes, colorimetric changes were measured at 450 nm using a FLUOstar Omega microplate reader (BMG Labtech GmbH, Ortenberg, Germany). […]"}, "[1]": {"system": "4 different S. suis serotype 2 strains", "assay": "Colony count assay (MBC), summary over the four strains", "assay_type": "cell-based, Streptococcus suis", "settings": "four sub-strains, RPMI+10% FCS medium", "experimental": "FIG. 1: D-CATH2 and its derivatives efficiently kills several S. suis type2 strains in both THB and RPMI+FCS. Antibacterial activity of D-CATH2 and its derivatives against 10^6 CFU ml^−1 S. suis type 2 strains (P1/7, D282, 5735, and OV625) was tested using a colony count assay in both THB medium (A) and RPMI+FCS (B). 2 log CFU mL^−1 was set as detection limit for the experiment. Data is plotted as average +/−SEM (N=3-4).\nS. suis Serotype 2 strains P1/7, D282, S735, and OV625 were grown into mid-logarithmic phase for 3-4 hours at 37° C. in THB, after which bacteria were centrifuged at 1200×g for 10 minutes at 4° C. and resuspended in fresh THB. Concentration was determined by measuring the OD value at 620 nm with an OD of 0.1 is 1×10^8 colony forming units (CFU) mL^−1. 10^6 CFU mL^−1 S suis was mixed with different concentrations of D-CATH and derivatives (0.63−40 μM) and left for 3 hours at 37° C. Ten-fold dilutions were prepared and spread in Tryptan Soy agar (TSA) plates containing 5% (vol/vol) defibrinated sheep blood (Oxoid) and colonies were allowed to grow for 48 hours. Minimal Bactericidal Concentration (MBC) was defined as ≤100 CFU mL^−1 (2 logCFU mL^−1), the detection limit of the assay."}, "[2]": {"assay": "Isothermal titration calorimetry (ITC) of peptide binding to LTA-SA", "parameters": "species or system S. aureus", "settings": "200 μM peptide titrated into LTA-SA, 37° C., dPBS; read-out: Kd (dissociation coefficient)", "experimental": "Thermodynamic binding capacity of 200 μM D-CATH2 (A), DC(1-21) (B), and DC(4-21) (C) to 200 μM LTA-SA was measured using isothermal titration calorimetry (ITC). Every 300 seconds, 1.99 μl peptide solution was titrated into 164 μl LTA solution. The corrected heat rate (μJ sec^−1) is plotted (top panel) and normalized integrated heat was plotted against the molar ratio between LTA and the peptide (lower panel). Experiments (N=3) were averaged before plotting and fitting an independent model. The corrected heat rate of D-CATH2, DC(1-21), and DC(4-21) is depicted for comparison (D).\nThe interaction between the D-CATH2 peptides and LTA-SA was tested using isothermal titration calorimetry (ITC). All ITC experiments were performed on a Low Volume NanoITC (TA instruments-Waters LLC, New Castle, USA). 800 μM of LTA-SA or peptide solution was prepared in MilliQ after which a 4-fold dilution in dPBS (Gibco) was made. The chamber was filled with 164 μl LTA-SA and the peptide was loaded in the syringe. Every 300 seconds, 1.99 μL peptide was titrated into the chamber at 37° C. Data was analyzed using the Nano Analyze software (TA instruments-Waters LLC). The data of three experiments was averaged and an independent model was used to determine the peptide-LTA interaction."}, "[3]": {"system": "murine macrophage cell-line", "settings": "biological form of CATH2; cited from earlier work"}},
  "note": "Where a SMILES comes first, the peptide text is derived from it. [ ]: non-standard residue; d: D form.",
  "data": [
    {"compound": "CC[C@@H](C)[C@@H](NC(=O)[C@@H](CCCCN)NC(=O)[C@@H](CCCNC(=N)N)NC(=O)[C@@H](CC(C)C)NC(=O)[C@@H](Cc1ccccc1)NC(=O)[C@@H](CCCNC(=N)N)NC(=O)CNC(=O)[C@@H](Cc1ccccc1)NC(=O)[C@H](N)CCCNC(=N)N)C(=O)N[C@H](CCCNC(=N)N)C(=O)N[C@H](CCCNC(=N)N)C(=O)N[C@H](Cc1ccccc1)C(=O)N[C@H](CCCNC(=N)N)C(=O)N1CCC[C@@H]1C(=O)N[C@H](CCCCN)C(=O)N[C@@H](C(=O)N[C@@H](C(=O)N[C@@H](C(=O)N[C@@H](C(=O)N[C@@H](C(=O)N[C@H](CCC(N)=O)C(=O)NCC(=O)N[C@H](CO)C(=O)N[C@H](C)C(=O)N[C@H](CCCNC(=N)N)C(=O)N[C@H](Cc1ccccc1)C(N)=O)[C@H](C)CC)[C@H](C)O)[C@H](C)CC)[C@H](C)O)C(C)C", "note": "[D-CATH2]", "values": [
      {"measurement": "cell viability of BMDMs", "setting": "murine BMDMs", "result": "relative sensitive"}
    ]},
    {"compound": "CC[C@@H](C)[C@@H](NC(=O)[C@@H](CCCCN)NC(=O)[C@@H](CCCNC(=N)N)NC(=O)[C@@H](CC(C)C)NC(=O)[C@@H](Cc1ccccc1)NC(=O)[C@@H](CCCNC(=N)N)NC(=O)CNC(=O)[C@@H](Cc1ccccc1)NC(=O)[C@H](N)CCCNC(=N)N)C(=O)N[C@H](CCCNC(=N)N)C(=O)N[C@H](CCCNC(=N)N)C(=O)N[C@H](Cc1ccccc1)C(=O)N[C@H](CCCNC(=N)N)C(=O)N1CCC[C@@H]1C(=O)N[C@H](CCCCN)C(=O)N[C@@H](C(=O)N[C@@H](C(=O)N[C@@H](C(=O)N[C@@H](C(=O)N[C@@H](C(=O)N[C@H](CCC(N)=O)C(N)=O)[C@H](C)CC)[C@H](C)O)[C@H](C)CC)[C@H](C)O)C(C)C", "note": "[DC(1-21)]", "values": [
      {"measurement": "cell viability of BMDMs", "setting": "murine BMDMs", "result": "especially"}
    ]},
    {"compound": "CC[C@@H](C)[C@@H](NC(=O)[C@@H](CCCCN)NC(=O)[C@@H](CCCNC(=N)N)NC(=O)[C@@H](CC(C)C)NC(=O)[C@@H](Cc1ccccc1)NC(=O)[C@H](N)CCCNC(=N)N)C(=O)N[C@H](CCCNC(=N)N)C(=O)N[C@H](CCCNC(=N)N)C(=O)N[C@H](Cc1ccccc1)C(=O)N[C@H](CCCNC(=N)N)C(=O)N1CCC[C@@H]1C(=O)N[C@H](CCCCN)C(=O)N[C@@H](C(=O)N[C@@H](C(=O)N[C@@H](C(=O)N[C@@H](C(=O)N[C@@H](C(=O)N[C@H](CCC(N)=O)C(N)=O)[C@H](C)CC)[C@H](C)O)[C@H](C)CC)[C@H](C)O)C(C)C", "note": "[DC(4-21), RFLRKIRRFRPKVTITIQ-NH2] (H-[dR][dF][dL][dR][dK][dI][dR][dR][dF][dR][dP][dK][dV][dT][dI][dT][dI][dQ]-NH2; N-terminus assumed)", "values": [
      {"measurement": "MBC", "setting": "[1]", "result": 2.5, "unit": "µM"},
      {"measurement": "Kd", "setting": "[2]", "result": 2.12, "unit": "µM"}
    ]},
    {"compound": "RFGRFLRKIRRFRPKVTITIQGSARFG [CATH2, chicken cathelicidin-2, 27 amino acid C-terminal peptide]", "values": [
      {"measurement": "LPS and LTA activation", "setting": "[3]", "result": "inhibit"}
    ]}
  ]
}
